According to publication PMC10065799, “High-throughput profiling of sequence recognition by tyrosine kinases and SH2 domains using bacterial peptide display” (eLife, 2023):
Square brackets hold non-standard residues; d marks the D form. pY = N[C@@H](Cc1ccc(OP(=O)(O)O)cc1)C(=O)O

Key:
[1] = target: T1, c-Src kinase domain (Homo sapiens, UniProt P12931); assay: pTyr-Var library bacterial peptide display kinase screen (enrichment scores); assay type: biochemical; conditions: sheet "Src";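 note: log2 fold change in enrichment of variant over reference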
[2] = tested on: Fer kinase domain; assay: as above; assay type: biochemical, mouse; conditions: sheet "Fer";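 note: log2 fold change in enrichment of variant over reference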
[3] = tested on: EPHB1 kinase domain; assay: as above; assay type: biochemical, human; conditions: for Screen: sheet EPHB1, effect of the variant peptide relative to its reference peptide in the pTyr-Var library screen (enrichment scores); for Screen (variant relative to reference peptide, measured in the pTyr-Var library screen): sheet "EPHB1", variant seq vs reference seq, bacterial peptide display enrichment
[4] = tested on: EPHB2 kinase domain; assay: as above; assay type: biochemical, human; conditions: sheet EPHB2;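 note: log2 fold change in enrichment of variant over reference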
[5] = target: T2, c-Abl kinase domain (Mus musculus, UniProt P00520); assay: as above; assay type: biochemical; conditions: fig5-data2, sheet "Abl"; Screen for the variant/reference peptide pair, pTyr-Var library;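 note: log2 fold change in enrichment of variant over reference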
T2 sequence (P00520 242-493 limits assumed): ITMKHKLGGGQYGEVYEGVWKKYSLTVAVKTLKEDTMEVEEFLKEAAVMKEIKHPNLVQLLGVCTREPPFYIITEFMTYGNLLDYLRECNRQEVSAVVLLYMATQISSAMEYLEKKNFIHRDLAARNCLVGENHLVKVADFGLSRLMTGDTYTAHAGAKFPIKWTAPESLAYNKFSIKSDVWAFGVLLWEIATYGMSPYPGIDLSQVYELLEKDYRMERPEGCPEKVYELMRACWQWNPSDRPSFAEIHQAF

[6] = target: T1, c-Src kinase domain; assay: ADP-Quest continuous fluorimetric kinase assay (Michaelis-Menten parameters and initial rates); assay type: biochemical; conditions: c-Src kinase domain 10 nM, 100 μM ATP, 37 °C, three to five replicates, error = standard error of global Michaelis-Menten fit
[7] = target: human c-Src SH2 domain (residues 143-250) (human, UniProt P12931-1 143-250, biotin on the Avi tag (co-expression with the biotin ligase BirA)); assay: fluorescence polarisation; competition: unlabeled phosphopeptide serially diluted against 30 nM fluorescent peptide and 240 nM (1.5 x KD) c-Src SH2; same buffer; 25 °C; cubic binding equation; conditions: both partners purified
[8] = effect of the variant peptide relative to its reference peptide in the pTyr-Var library screen
[9] = value of the variant peptide against its reference peptide in the pTyr-Var library screen with Fer
[10] = effect of variant peptide relative to its reference peptide in the pTyr-Var library screen (enrichment scores)
[11] = variant peptide versus its reference peptide in the pTyr-Var library screen
[12] = variant peptide relative to its reference peptide, pTyr-Var library screen enrichment
[13] = effect of the variant relative to its reference peptide in the pTyr-Var library screen

Molecule RQSTLYSFFPT [MSH6_Y8_K13T] has a Screen [1, 8] of -0.09567, a Screen [2, 9] of 1.758 and a Screen [3] of -0.1515. For the same molecule, the Screen [4, 10] was 0.1224.

In the case of INPIIYAFVVE [CCR5_Y297_G301V], the Screen [1, 8] is reported as -0.9018, the Screen [2, 9] is reported as -1.367 and the Screen [3] is reported as -1.262. The Screen [4, 10] was -1.294.

In the case of VDTGVYAVPPP [BCAR1_Y410_S407T], the Screen [1, 8] is reported as -0.01564, the Screen [2, 9] is reported as 0.101 and the Screen [3] is reported as 0.1474. The Screen [4, 10] was 0.0652.

Work on ENGPFYASFPP [GDAP2_Y488_T489A_YF] yielded a Screen [1, 8] of 0.1608, a Screen [2, 9] of 0.7376 and a Screen [3] of 1.693. For the same molecule, the Screen [4, 10] was 2.037.

Work on LNGDRYFKGIV [DCX_Y64_R59L] yielded a Screen [5] of 0.06367, a Screen [2, 9] of 2.021 and a Screen [3] of 2.112. For the same molecule, the Screen [4, 10] was 1.457.

KQQEIYQEVTQ [CD209_Y239_L242V] gave a Screen [1, 8] of -0.1121, a Screen [2, 9] of 1.048 and a Screen [3] of 0.2667. For the same molecule, the Screen [4, 10] was 0.564.

QTPVLYTMLDH [MPZ_Y220_A221T] gave a Screen [1, 8] of -0.5854, a Screen [2, 9] of 0.203 and a Screen [3] of -1.287. For the same molecule, the Screen [4, 10] was -2.33.

In the case of NREGVYTDFAP [TGFBI_Y537_V539D], the Screen [1, 11] is reported as -0.2611, the Screen [2, 12] is reported as -1.802 and the “Screen (variant relative to reference peptide, measured in the pTyr-Var library screen)” value [3] is reported as -2.047. For the same molecule, the Screen [4, 13] was -1.696.

With PFTRNYFVWAV [CYBA_Y87_R90W_YF] the Screen [5] was 0.4523, the Screen [2, 9] was 2.258 and the Screen [3] was 3.209. It also gave a Screen [4, 10] of 2.204.

Molecule FRSSLYSLMET [MYO5C_Y633_L634S] has a Screen [1, 11] of 2.978, a Screen [2, 9] of 3.791 and a Screen [3] of 2.366. It also gave a Screen [4, 10] of 1.684.

In the case of NKFTTYLPWLP [C9orf24_Y126_R129W_YF], the Screen [1, 8] is reported as 3.427, the Screen [2, 9] is reported as 4.402 and the Screen [3] is reported as 3.061. The Screen [4, 10] was 3.885.

With LTTEAYEWEPC [ELMOD3_Y61_R66C] the Screen [1, 8] was 2.164, the Screen [2, 9] was 1.258 and the Screen [3] was 1.595. It also gave a Screen [4, 10] of 1.193.

VVQGIYGFHHH [UFSP2_Y285_Y290H_YF] was tested, and the Screen [1, 11] was 0.2882, the Screen [2, 12] was -0.4799 and the “Screen (variant relative to reference peptide, measured in the pTyr-Var library screen)” value [3] was -1.444. For the same molecule, the Screen [4, 13] was -2.017.

PLEGEYFTLQI [TP53_Y327_D324E] was tested, and the Screen [1, 11] was 0.9967, the Screen [2, 12] was 1.311 and the “Screen (variant relative to reference peptide, measured in the pTyr-Var library screen)” value [3] was 1.418. The Screen [4, 13] was 1.812.

“Ac-GAEEEIYGIFGAKKKG-NH2 [SrcTide (2014), previously reported c-Src consensus substrate (Deng et al., 2014)]” gave a Km [6] of 7 ± 3 µM and a kcat [6] of 1.8±0.1 s^–1.

With ISSLLYELLEE [TRPC6_Y896_R895L] the Screen [1, 11] was 3.086, the Screen [2, 12] was 3.789 and the “Screen (variant relative to reference peptide, measured in the pTyr-Var library screen)” value [3] was 3.527. For the same molecule, the Screen [4, 13] was 3.042.

For ADAGMYGVLPW [PLP1_Y207_R205G], the Screen [1, 11] was -0.01805, the Screen [2, 9] was 1.986 and the Screen [3] was 0.87. It also gave a Screen [4, 10] of 1.359.

HNVPIYEGFGL [ACTA1_Y168_A172G_YF] was tested, and the Screen [1, 8] was -0.3085, the Screen [5] was -0.8833 and the Screen [2, 9] was -0.2533. For the same molecule, the Screen [3] was 0.1073 and the Screen [4, 10] was 0.031.

HLVLNYGVCFC [JAK2_Y613_V617F] gave a Screen [5] of 1.962, a Screen [3] of 0.008865 and a Screen [4, 10] of 0.8396.

Work on QPSALYEDRFL [ASS1_Y83_S79P_YF] yielded a Screen [1, 8] of -0.4742, a Screen [2, 9] of 0.05915 and a Screen [3] of -0.4777. The Screen [4, 10] was 0.0303.

For NNHGNYIVHLG [ETFDH_Y172_R175H], the Screen [3] was 2.943 and the Screen [4, 10] was 1.999.

NVVQEYERVII [NPHS2_Y131_K126N] was tested, and the Screen [2, 9] was 0.1682, the Screen [3] was -0.6061 and the Screen [4, 10] was -0.3645.

Work on QNTVDYFDLFG [PTPN11_Y62_G60V_YF] yielded a Screen [1, 11] of -1.317, a Screen [3] of -3.39 and a Screen [4, 10] of -4.099.

GRKTLYSFFSP [UNG_Y8_Q4R] was tested, and the Screen [1, 11] was -1.198, the Screen [2, 12] was -1.21 and the “Screen (variant relative to reference peptide, measured in the pTyr-Var library screen)” value [3] was -1.828. For the same molecule, the Screen [4, 13] was -1.763.

HNMPIYEGFAL [ACTA1_Y168_V165M_YF] showed a Screen [1, 8] of 0.3248, a Screen [5] of -1.455 and a Screen [2, 9] of 0.2696. It also gave a Screen [3] of 0.09959 and a Screen [4, 10] of 0.1725.

B1: ACTA1_Y171_YF phosphopeptide Ac-QPIFEG(pY)ALPHAG-NH2 (peptide)
peptide: Ac-QPIFEG[pY]ALPHAG-NH2
SMILES: CC[C@H](C)[C@H](NC(=O)[C@@H]1CCCN1C(=O)[C@H](CCC(N)=O)NC(C)=O)C(=O)N[C@@H](Cc1ccccc1)C(=O)N[C@@H](CCC(=O)O)C(=O)NCC(=O)N[C@@H](Cc1ccc(OP(=O)(O)O)cc1)C(=O)N[C@@H](C)C(=O)N[C@@H](CC(C)C)C(=O)N1CCC[C@H]1C(=O)N[C@@H](Cc1c[nH]cn1)C(=O)N[C@@H](C)C(=O)NCC(N)=O
notes: source: synthetic peptide (synthesized in-house, RP-HPLC purified)
B1: binds [7].

B2: ACTA1_Y171_A172G_YF phosphopeptide Ac-QPIFEG(pY)GLPHAG-NH2 (peptide)
peptide: Ac-QPIFEG[pY]GLPHAG-NH2
SMILES: CC[C@H](C)[C@H](NC(=O)[C@@H]1CCCN1C(=O)[C@H](CCC(N)=O)NC(C)=O)C(=O)N[C@@H](Cc1ccccc1)C(=O)N[C@@H](CCC(=O)O)C(=O)NCC(=O)N[C@@H](Cc1ccc(OP(=O)(O)O)cc1)C(=O)NCC(=O)N[C@@H](CC(C)C)C(=O)N1CCC[C@H]1C(=O)N[C@@H](Cc1c[nH]cn1)C(=O)N[C@@H](C)C(=O)NCC(N)=O
notes: as for B1
B2: binds [7].

B3: CBS_Y308 phosphopeptide Ac-QVEGIG(pY)DFIPTG-NH2 (peptide)
peptide: Ac-QVEGIG[pY]DFIPTG-NH2
SMILES: CC[C@H](C)[C@H](NC(=O)CNC(=O)[C@H](CCC(=O)O)NC(=O)[C@@H](NC(=O)[C@H](CCC(N)=O)NC(C)=O)C(C)C)C(=O)NCC(=O)N[C@@H](Cc1ccc(OP(=O)(O)O)cc1)C(=O)N[C@@H](CC(=O)O)C(=O)N[C@@H](Cc1ccccc1)C(=O)N[C@H](C(=O)N1CCC[C@H]1C(=O)N[C@H](C(=O)NCC(N)=O)[C@@H](C)O)[C@@H](C)CC
notes: as for B1
B3: binds [7].

B4: CBS_Y308_G307S phosphopeptide Ac-QVEGIS(pY)DFIPTG-NH2 (peptide)
peptide: Ac-QVEGIS[pY]DFIPTG-NH2
SMILES: CC[C@H](C)[C@H](NC(=O)CNC(=O)[C@H](CCC(=O)O)NC(=O)[C@@H](NC(=O)[C@H](CCC(N)=O)NC(C)=O)C(C)C)C(=O)N[C@@H](CO)C(=O)N[C@@H](Cc1ccc(OP(=O)(O)O)cc1)C(=O)N[C@@H](CC(=O)O)C(=O)N[C@@H](Cc1ccccc1)C(=O)N[C@H](C(=O)N1CCC[C@H]1C(=O)N[C@H](C(=O)NCC(N)=O)[C@@H](C)O)[C@@H](C)CC
notes: as for B1
B4: binds [7].
